# From ChEMBL document CHEMBL1132803, “L-Selenohomocysteine: one-step synthesis from L-selenomethionine and kinetic analysis as substrate for methionine synthases” (Bioorg Med Chem Lett, 2000)
# What was measured:
# [1] = Specific activity of compound was determined; type: ADME
# [2] = Second order rate constant was determined; type: ADME
structure (smiles),measurement,setting,value
NC(CCS)C(=O)O (configuration not stated) [HOMOCYSTEINE],Specific activity,[1],0.23 µM/min/mg
same,Km,[2],69 µM
